Assay [1] concerns maltase. The assay is described as follows: Maltase activity of rat small intestinal mucosal enzyme solution after AAPH oxidation. It counts as biochemical. On the procedure:
One milliliter of the above rat small intestinal mucosal enzyme solution, one milliliter of a 100 mM AAPH solution, one milliliter of a 50 mM phosphate buffer (pH 7.2), and one milliliter of a 400 mM of the crystalline cyclotetrasaccharide pentahydrate prepared in Experiment 1-1 were mixed, incubated at 37° C. for two hours, and measured for the activities of sucrase and maltase. […] To a half milliliter of a maltose solution, which had been prepared by dissolving maltose in 50 mM sodium maleate (pH 6.6) to give a concentration of one percent (%), 0.05 ml of a AAPH-rat small intestinal mucosal enzyme solution. After incubated at 37° C. for 30 min, the mixture was quantified for free glucose by the GOD method. One unit (U) activity of maltase was defined as an enzyme amount that releases two micromoles of glucose per minutes from maltose at 37° C.

Assay [2] relates to sucrase. In words: Sucrase activity of rat small intestinal mucosal enzyme solution after AAPH oxidation. It counts as biochemical. On the procedure:
One milliliter of the above rat small intestinal mucosal enzyme solution, one milliliter of a 100 mM AAPH solution, one milliliter of a 50 mM phosphate buffer (pH 7.2), and one milliliter of a 400 mM of the crystalline cyclotetrasaccharide pentahydrate prepared in Experiment 1-1 were mixed, incubated at 37° C. for two hours, and measured for the activities of sucrase and maltase.
After incubated at 37° C. for 30 min, the mixture was quantified for free glucose by the GOD method.

Assay [3] has as its system calf serum albumin (BSA). The assay is described as follows: Modification of BSA by lipid peroxides (protein carbonyl, OLAARPs). It counts as biochemical. Particulars: for OLAARPs Formation: (%) / Protein carbonyl Formation: (%): BSA, versus no saccharide; for Formed OLAARPs / Formed Protein carbonyl: 37° C., 24 hours. On the procedure: (§1) In this experiment, saccharide solutions were prepared to give an equal total saccharide molar concentration in each solution.
(§2) As a negative control, PBS was used.
(§3) To five milliliters of either of the above saccharide solutions for testing or the negative control was added 10 mg of calf serum albumin (BSA) or L-lysine, followed by dissolving. To each of the resulting solutions was added 25 μg of 2,4-decadienal or malondialdehyde (MDA) as a lipid peroxide, followed by reaction at 37° C. for 24 hours. After completion of the reaction, protein carbonyl and reaction products of oxidized lipids/aminoacids (OLAARPs) formed as aldehyde adducts were quantified on the calorimetric method. […] The formation levels of protein carbonyl and OLAARPs were determined based on the absorbances obtained in this experiment, in terms of the molar absorbance coefficient for each molecule as disclosed in Biochim. Biophys.
(§4) To each of the resulting mixtures was added 600 μl of 30% trichloroacetic acid, and the mixture was allowed to stand at 0° C. for one hour and centrifuged at 10,000 rpm for 15 min to obtain a precipitate, followed by washing the resulting precipitate four times with two milliliters of ethanol/ethylacetate (1:1), respectively, adding 1.5 ml of 6M-guanidine hydrochloride/20 mM-NaPi/TFA (pH 2.3) to the resultant, allowing the mixture to stand at 37° C. for 30 min, and measuring the absorbance of the resulting mixture at a wavelength of 580 nm, ε=35,000 M^−1 cm^−1.

Assay [4] is described as follows: Modification of L-lysine by lipid peroxides (protein carbonyl, OLAARPs). Particulars: for OLAARPs Formation: (%) / Protein carbonyl Formation: (%): L-lysine, versus no saccharide; for Formed OLAARPs / Formed Protein carbonyl: 37° C., 24 hours. On the procedure: as §1, §2
as §3, with “Biophys. Acta, No. 1,258, pp. 319-327 (1985).” for “Biophys.”
as §4, with “cm^−1. […] To any one of the resulting mixtures was added two milliliters of a 12.5 mM DNPH/2.5 N-hydrochloride solution, and the resulting mixture was allowed to stand at 45° C. for 30 min, followed by measuring the absorbance of the resulting mixture at a wavelength of 580 nm, E=35,000 M^−1 cm^−1.” for “cm^−1.”

Where [5] appears, read: enzyme solution incubated with AAPH at 37° C. for two hours, with or without cyclotetrasaccharide.
Setting [6] is: versus system with no AAPH, 37° C., two hours.
The mark [7] stands for this setting: added lipid peroxide 2,4-decadienal.
[8] abbreviates: added lipid peroxide malondialdehyde (MDA).

As for `CC(C)(N=NC(C)(C)C(=N)N)C(=N)N.Cl.Cl` [AAPH, 2,2′-azo-bis(2-amidinopropane)dihydrochloride, reference compound], the Maltase activity in assay [1] (setting [5]) was 0.0555 u/mg-protein. Also, the “Maltase Relative residual activity (%)” value in assay [1] (setting [6]) is “(71) %”. The molecule further had a Sucrase activity in assay [2] (setting [5]) of 0.0042 u/mg-protein. Also, the “Sucrase Relative residual activity (%)” value in assay [2] (setting [6]) is on record as “(29) %”.
With `OC[C@@H](O)[C@@H](O[C@H]1O[C@H](CO)[C@@H](O)[C@H](O)[C@H]1O)[C@H](O)[C@@H](O)CO` [Maltitol, maltitol], the “OLAARPs Formation: (%)” value in assay [3] (2,4-decadienal) is on record as “(67) %”; in assay [3] (MDA) it was “(48) %”; in assay [4] (2,4-decadienal), “(73) %”; in assay [4] (MDA), “(84) %”. In addition, the “Protein carbonyl Formation: (%)” value in assay [3] (2,4-decadienal) is listed as “(53) %”; in assay [3] (MDA) it was “(53) %”; in assay [4] (2,4-decadienal), “(51) %”; in assay [4] (MDA), “(55) %”. The “Formed OLAARPs” value in assay [3] (setting [7]) came to 2.83 μmol/g-BSA; in assay [3] (setting [8]), 2.78 μmol/g-BSA; in assay [4] (setting [7]), 5.90 μmol/g-L-lysine; in assay [4] (setting [8]) it was 7.23 μmol/g-L-lysine. Moreover, the “Formed Protein carbonyl” value was 7.51 μmol/g-BSA in assay [3] (setting [7]), 1.29 μmol/g-BSA in assay [3] (setting [8]), 6.81 μmol/g-L-lysine in assay [4] (setting [7]) and 3.29 μmol/g-L-lysine in assay [4] (setting [8]).
For `OC[C@H]1O[C@@](CO)(O[C@H]2O[C@H](CO)[C@@H](O)[C@H](O)[C@H]2O)[C@@H](O)[C@@H]1O` [Sucrose, sucrose], in assay [4] (2,4-decadienal), the “OLAARPs Formation: (%)” value is listed as “(93) %” and the “Protein carbonyl Formation: (%)” value is on record as “(81) %”. In assay [4] (MDA), the “OLAARPs Formation: (%)” value is on record as “(94) %” and the “Protein carbonyl Formation: (%)” value is “(96) %”. Also, in assay [4] (setting [7]), the “Formed OLAARPs” value is reported as 7.54 μmol/g-L-lysine and the “Formed Protein carbonyl” value amounted to 10.92 μmol/g-L-lysine. Further, in assay [4] (setting [8]), the “Formed OLAARPs” value turned out to be 8.13 μmol/g-L-lysine and the “Formed Protein carbonyl” value was 5.75 μmol/g-L-lysine.

The record behind these values is US20050267067A1, “Radical reaction inhibitors, method for inhibition of radical reactions, and use thereof” (priority 2002, published 2005).
